Data taken from patent US11053258B2, “Pyrimidine carboxamides as GSK-3 inhibitors” (BRISTOL-MYERS SQUIBB COMPANY, priority 2016, dated 2021).
Values joined by “and” are separate entries in the source; they are usually repeats but may differ in a detail not shown here. Equal entries are not always repeated. Where two headings read alike, the source gives them in different places.

Tests used:
GSK3α = GSK3α (Homo sapiens, UniProt P49840); assay: GSK3α kinase assay (Caliper LabChip3000, fluoresceinated peptide substrate); format: biochemical; conditions: second value of cell; 250 pM enzyme, 20 uM ATP, 20 hours room temperature; read-out: GSK3β/α (nM): GSK3α IC50
Protocol: (§1) The kinase assay was performed in V-bottom 384-well plates. The final assay volume was 30 μl prepared from 15 μl additions of enzyme, substrates (fluoresceinated peptide FL-KRREILSRRP[ps]ERYR-NH2 and ATP) and test compounds in assay buffer (100 mM HEPES pH 7.4, 10 mM MgCl2, 25 mM Beta-Glycerolphosphate, 0.015% Brij35 and 0.25 mM DTT). The reaction was incubated at room temperature for 20 hours and terminated by adding 45 μl of 35 mM EDTA to each sample. The reaction mixture was analyzed on the Caliper LabChip3000 (Caliper, Hopkinton, Mass.) by electrophoretic separation of the unphosphorylated substrate and phosphorylated product. Inhibition data were calculated by comparison of the no enzyme control reactions for 100% inhibition and vehicle-only reactions for 0% inhibition. The final concentration of reagents in the assay were 250 pM GSK3α or GSK3β, 20 uM ATP, 1.5 uM FL-KRREILSRRP[ps]ERYR-NH2, and 1.6% DMSO. Dose response curves were generated to determine the concentration required to inhibit 50% of the kinase activity (IC50). Compounds were dissolved at 10 mM in dimethylsulfoxide (DMSO) and evaluated at eleven concentrations. IC50 values were derived by non-linear regression analysis.

pTau = pTau assay; format: cell-based
[1] = rcm bond, 70.0 °C
GSK3β = GSK3β (Homo sapiens, UniProt P49841); assay: GSK3β kinase assay (Caliper LabChip3000, fluoresceinated peptide substrate); format: biochemical; conditions: first value of cell; 250 pM enzyme, 20 uM ATP, 20 hours room temperature; read-out: GSK3β/α (nM): GSK3β IC50
Protocol: as §1

Sequence of GSK3β (P49841 whole entry, species assumed): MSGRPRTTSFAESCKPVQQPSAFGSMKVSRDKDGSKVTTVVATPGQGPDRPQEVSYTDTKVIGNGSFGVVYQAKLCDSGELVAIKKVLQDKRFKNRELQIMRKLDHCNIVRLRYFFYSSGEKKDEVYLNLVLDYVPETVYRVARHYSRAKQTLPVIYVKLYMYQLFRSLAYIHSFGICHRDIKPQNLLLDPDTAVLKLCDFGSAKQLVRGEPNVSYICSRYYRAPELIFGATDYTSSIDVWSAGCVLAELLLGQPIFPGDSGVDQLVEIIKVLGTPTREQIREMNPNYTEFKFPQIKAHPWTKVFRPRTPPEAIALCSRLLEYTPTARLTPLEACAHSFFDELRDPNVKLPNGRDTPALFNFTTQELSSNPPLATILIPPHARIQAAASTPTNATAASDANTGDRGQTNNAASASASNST
Sequence of GSK3α (P49840 whole entry, species assumed): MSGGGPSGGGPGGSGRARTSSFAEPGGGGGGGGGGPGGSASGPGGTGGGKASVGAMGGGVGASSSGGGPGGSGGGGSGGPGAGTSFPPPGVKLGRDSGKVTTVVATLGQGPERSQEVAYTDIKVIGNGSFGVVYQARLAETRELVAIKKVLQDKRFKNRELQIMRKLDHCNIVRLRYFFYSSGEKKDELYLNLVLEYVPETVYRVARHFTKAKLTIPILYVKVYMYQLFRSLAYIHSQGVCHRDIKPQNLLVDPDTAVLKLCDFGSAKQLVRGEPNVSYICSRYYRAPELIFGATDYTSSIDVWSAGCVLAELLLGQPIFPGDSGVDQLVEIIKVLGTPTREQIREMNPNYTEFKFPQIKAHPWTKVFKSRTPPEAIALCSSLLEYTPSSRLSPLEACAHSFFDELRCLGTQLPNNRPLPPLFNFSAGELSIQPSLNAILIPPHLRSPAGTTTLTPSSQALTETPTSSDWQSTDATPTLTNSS

Row | IC50 (GSK3α) | IC50 (pTau) | IC50 (GSK3β) | Compound | further results
1 | 15.5 nM | 178 nM |  | O=C1Nc2cnc(F)cc2N2CCN(C/C=C/CC(F)CNc3nccc1n3)CC2 (centres unmarked) [Example 30, (E)-2^6,8-Difluoro-3,6-diaza-5(4,2)-pyrimidina-1(1,4)-piperazina-2(4,3)-pyridinacyclododecaphan-10-en-4-one] | 
2 |  |  |  | O=C1Nc2cnc(F)cc2N2CCN(CC=CCC3(CC3)CNc3nccc1n3)CC2 | ring closure, isolated yield ([1]; from C=CCN1CCN(c2cc(F)ncc2NC(=O)c2ccnc(NCC3(CC=C)CC3)n2)CC1, 18-membered ring, Zhan 1B, ClCH2CH2Cl, 4.73 mM, 2.0 h): 79%
3 | 3.2 nM | 96 nM | 1.4 nM | CC1(O)CCCCCOc2ccncc2NC(=O)c2ccnc(n2)NC1 (centres unmarked) [Example 42, 11-Hydroxy-11-methyl-5-oxa-3,13-diaza-1(4,2)-pyrimidina-4(3,4)-pyridinacyclotridecaphan-2-one] | 
4 | 0.6 nM | 18 nM | 0.5 nM | O=C1Nc2cnc(F)cc2N2CCN(C/C=C/CCCNc3nccc1n3)CC2 (single isomer, unassigned) [Example 23, (E)-2^6-fluoro-3,6-diaza-5(4,2)-pyrimidina-1(1,4)-piperazina-2(4,3)-pyridinacyclododecaphan-10-en-4-one] | 
5 |  |  |  | O=C1Nc2cnc(F)cc2N2CCOC(C=CCCCNc3nccc1n3)C2 (centres unmarked) | ring closure, isolated yield ([1]; from C=CCCCNc1nccc(C(=O)Nc2cnc(F)cc2N2CCOC(C=C)C2)n1, 16-membered ring, Zhan 1B (40 mol%), ClCH2CH2Cl, 5.6 mM, 2.0 h): 46%
6 | 21.2 nM | 910 nM | 28.6 nM | O=C1Nc2cnccc2OCCCCCNc2nccc1n2 [Example 6, 5-Oxa-3,11-diaza-1(4,2)-pyrimidina-4(3,4)-pyridinacycloundecaphan-2-one] | 
7 | 34 nM | 1890 nM | 22.3 nM | O=C1Nc2cnc(F)cc2N2CCOC(CCCCCNc3nccc1n3)C2 (centres unmarked) [Example 15, 2^6-Fluoro-3,6-diaza-1(4,2)-morphohna-5(4,2)-pyrimidina-2(4,3)-pyridinacycloundecaphan-4-one] | 
8 |  |  |  | O=C1Nc2cnccc2OCCC=CCCCNc2nccc1n2 | ring closure, isolated yield ([1]; from C=CCCCNc1nccc(C(=O)Nc2cnccc2OCCC=C)n1, 16-membered ring, Zhan 1B (30 mol%), ClCH2CH2Cl, 5.57 mM, 2.0 h): 23%
9 | 20.2 nM | 627 nM | 12.5 nM | O=C1Nc2cnc(F)cc2N2CCOC(/C=C/CCCNc3nccc1n3)C2 (centres unmarked) [Example 14, (E)-2^6-Fluoro-3,6-diaza-1(4,2)-morpholina-5(4,2)-pyrimidina-2(4,3)-pyridinacycloundecaphan-10-en-4-one] | 
10 | 6.7 nM | 262 nM | 3.1 nM | O=C1Nc2cnccc2OCCCCCCCNc2nccc1n2 [Example 18, 5-Oxa-3,13-diaza-1(4,2)-pyrimidina-4(3,4)-pyridinacyclotridecaphan-2-one] | 
11 | 2 nM | 80 nM |  | CC1(C)C/C=C/CN2CCN(CC2)c2cc(F)ncc2NC(=O)c2ccnc(n2)NC1 [Example 32, (E)-2^6-Fluoro-8,8-dimethyl-3,6-diaza-5(4,2)-pyrimidina-1(1,4)-piperazina-2(4,3)-pyridinacyclododecaphan-10-en-4-one] | 
12 | 8 nM | 372 nM | 4.1 nM | CC1(O)C/C=C/CN2CCN(CC2)c2cc(F)ncc2NC(=O)c2ccnc(n2)NC1 (centres unmarked) [Example 39, (E)-2^6-Fluoro-8-hydroxy-8-methyl-3,6-diaza-5(4,2)-pyrimidina-1(1,4)-piperazina-2(4,3)-pyridinacyclododecaphan-10-en-4-one] | 
13 | 18.5 nM | 202 nM | 10.8 nM | C[C@@H]1Nc2nccc(n2)C(=O)Nc2cnc(F)cc2N2CCN(C/C=C/CC1O)CC2 (single isomer, unassigned) [Example 36] | 
14 | 2000 nM | 9970 nM | 1270 nM | O=C1Nc2cnc(F)cc2N2CCN(CC=CCC(O)C3(CC3)Nc3nccc1n3)CC2 (mixture of isomers) [Example 34, (E)-6′-fluoro-8′-hydroxyspiro[cyclopropane-1,7′-3,6-diaza-5(4,2)-pyrimidina-1(1,4)-piperazina-2(4,3)-pyridinacyclododecaphanen]-10′-en-4′-one] | ring closure, isolated yield ([1]; from C=CCC(O)C1(Nc2nccc(C(=O)Nc3cnc(F)cc3N3CCN(CC=C)CC3)n2)CC1, 18-membered ring, Zhan 1B, 1.5 h): 54%
15 | 3.6 nM | 124 nM | 2 nM | O=C1Nc2cnc(F)cc2N2CCN(CCCCCCNc3nccc1n3)CC2 [Example 24, 2^6-Fluoro-3,6-diaza-5(4,2)-pyrimidina-1(1,4)-piperazina-2(4,3)-pyridinacyclododecaphan-4-one] | 
16 | 4.3 nM | 164 nM | 3.3 nM | O=C1Nc2cnc(F)cc2N2CCN(C/C=C/CC(O)CNc3nccc1n3)CC2 (centres unmarked) [Example 26, (E)-2^6-fluoro-8-hydroxy-3,6-diaza-5(4,2)-pyrimidina-1(1,4)-piperazina-2(4,3)-pyridinacyclododecaphan-10-en-4-one] | 
17 |  |  |  | O=C1Nc2cnc(F)cc2N2CCN(CC=CCCCNc3nccc1n3)CC2 | ring closure, isolated yield ([1]; from C=CCCCNc1nccc(C(=O)Nc2cnc(F)cc2N2CCN(CC=C)CC2)n1, 18-membered ring, Zhan 1B (20 mol%), ClCH2CH2Cl, 5.64 mM, 2.0 h): 65%
18 |  |  |  | O=C1Nc2cnc(F)cc2N2CCN(CC=CCC(O)CNc3nccc1n3)CC2 (centres unmarked) | ring closure, isolated yield ([1]; from C=CCC(O)CNc1nccc(C(=O)Nc2cnc(F)cc2N2CCN(CC=C)CC2)n1, 18-membered ring, Zhan 1B (30 mol%), ClCH2CH2Cl, 5.33 mM, 4.0 h): 50%
19 | 4.7 nM | 266 nM | 2.7 nM | CC1(O)CC=CCCOc2ccncc2NC(=O)c2ccnc(n2)NC1 (mixture of isomers) [Example 41, (E)-11-Hydroxy-11-methyl-5-oxa-3,13-diaza-1(4,2)-pyrimidina-4(3,4)-pyridinacyclotridecaphan-8-en-2-one] | ring closure, isolated yield ([1]; from C=CCCOc1ccncc1NC(=O)c1ccnc(NCC(C)(O)CC=C)n1, 16-membered ring, Zhan 1B, ClCH2CH2Cl, 4.33 mM, 1.5 h): 39%
20 | 3.3 nM | 92 nM | 1.3 nM | O=C1Nc2cnccc2OCC/C=C/CCCNc2nccc1n2 [Example 17, (E)-5-Oxa-3,13-diaza-1(4,2)-pyrimidina-4(3,4)-pyridinacyclotridecaphan-8-en-2-one] | 
21 | 8.4 nM | 634 nM | 8.1 nM | O=C1Nc2cnccc2OCCC=CCCNc2nccc1n2 (mixture of isomers) [Example 8, 5-Oxa-3,12-diaza-1(4,2)-pyrimidina-4(3,4)-pyridinacyclododecaphan-8-en-2-one] | ring closure, isolated yield ([1]; from C=CCCNc1nccc(C(=O)Nc2cnccc2OCCC=C)n1, 15-membered ring, Zhan 1B (50 mol%), ClCH2CH2Cl, 4.3 mM, 2.0 h): 46%
22 | 17 nM | 404 nM | 7.3 nM | C[C@@H]1Nc2nccc(n2)C(=O)Nc2cnc(F)cc2N2CCN(C/C=C/C[C@@H]1O)CC2 [Example 37, (7S,8S,E)-2^6-fluoro-8-hydroxy-7-methyl-3,6-diaza-5(4,2)-pyrimidina-1(1,4)-piperazina-2(4,3)-pyridinacyclododecaphan-10-en-4-one] | 
23 | 21.1 nM | 1640 nM | 12.5 nM | O=C1Nc2cnc(F)cc2N2CCN(C/C=C\CC3(CC3)CNc3nccc1n3)CC2 [Example 44, (Z)-6′-fluorospiro[cyclopropane-1,8′-3,6-diaza-5(4,2)-pyrimidina-1(1,4)-piperazina-2(4,3)-pyridinacyclododecaphanen]-10′-en-4′-one] | 
24 | 6.2 nM | 146 nM | 5.2 nM | O=C1Nc2cnccc2OCCCCCCNc2nccc1n2 [Example 9, 5-Oxa-3,12-diaza-1(4,2)-pyrimidina-4(3,4)-pyridinacyclododecaphan-2-one] | 
25 |  |  |  | C[C@@H]1Nc2nccc(n2)C(=O)Nc2cnc(F)cc2N2CCN(CC=CCC1O)CC2 (some centres unmarked) | ring closure, isolated yield ([1]; from C=CCC(O)[C@H](C)Nc1nccc(C(=O)Nc2cnc(F)cc2N2CCN(CC=C)CC2)n1, 18-membered ring, Zhan 1B, ClCH2CH2Cl, 4.78 mM, 1.5 h): 29% and 26%
26 | 30.4 nM | 2660 nM | 29 nM | O=C1Nc2cnc(F)cc2N2CCN(C/C=C\CCC(O)CNc3nccc1n3)CC2 (centres unmarked) [Example 29, (Z)-2^6-fluoro-8-hydroxy-3,6-diaza-5(4,2)-pyrimidina-1(1,4)-piperazina-2(4,3)-pyridinacyclotridecaphan-11-en-4-one] | 
27 |  |  |  | CC1(C)CC=CCN2CCN(CC2)c2cc(F)ncc2NC(=O)c2ccnc(n2)NC1 | ring closure, isolated yield ([1]; from C=CCN1CCN(c2cc(F)ncc2NC(=O)c2ccnc(NCC(C)(C)CC=C)n2)CC1, 18-membered ring, Zhan 1B, 1.5 h, 2 steps): 34%
